Measurements from ChEMBL document CHEMBL6087386, “Radioprotective effectiveness of a novel delta-tocotrienol prodrug on mouse hematopoietic system against 60Co gamma-ray irradiation through inducing granulocyte-colony stimulating factor production” (Eur J Med Chem, 2024).
Calls of active or inactive are those of the source. The rule behind the calls is not given here.

Key:
[1] = Clearance in ICR mouse at 100 mg/kg, iv measured upto 24 hrs by LC-MS/MS analysis; assay type: ADME, organism-based; settings: in vivo
[2] = MRT (0 to t) in ICR mouse at 100 mg/kg, sc measured upto 24 hrs by LC-MS/MS analysis; assay type: ADME, organism-based; settings: in vivo
[3] = MRT (0 to t) in ICR mouse at 100 mg/kg, iv measured upto 24 hrs by LC-MS/MS analysis; assay type: ADME, organism-based; settings: in vivo
[4] = Tmax in ICR mouse at 100 mg/kg, iv measured upto 24 hrs by LC-MS/MS analysis; assay type: ADME, organism-based; settings: in vivo
[5] = MRT (0 to infinity) in ICR mouse at 100 mg/kg, iv measured upto 24 hrs by LC-MS/MS analysis; assay type: ADME, organism-based; settings: ICR, in vivo
[6] = test system: Mus musculus; test: Radioprotective activity in C57BL/6J mouse assessed as increase in platelets count at 100 mg/kg, sc preincubated with compound for 24 hrs followed by total body irradiation with 6.5 Gy and measured after 30 days; assay type: functional, organism-based; settings: time 31.0 day
[7] = test system: Mus musculus; test: Radioprotective activity in C57BL/6J mouse assessed as increase in number of LK cells at 100 mg/kg, sc preincubated with compound for 24 hrs followed by total body irradiation with 6.5 Gy and measured after 30 days; assay type: functional, organism-based; settings: time 31.0 day
[8] = Cmax in ICR mouse at 100 mg/kg, iv measured upto 24 hrs by LC-MS/MS analysis; assay type: ADME, organism-based; settings: in vivo
[9] = test system: Mus musculus; test: Radioprotective activity in C57BL/6J mouse assessed as survival rate at 100 mg/kg, sc preincubated with compound for 24 hrs followed by total body irradiation with 8.5 Gy and measured after 20 days by Kaplan-meier plot analysis; assay type: functional; settings: light or radiation study, 504 h, time 21 day
[10] = test system: Mus musculus; test: Radioprotective activity in C57BL/6J mouse assessed as survival rate at 100 mg/kg, sc preincubated with compound for 24 hrs followed by total body irradiation with 8.5 Gy and measured after 30 days by Kaplan-meier plot analysis; assay type: functional; settings: time 31 day
[11] = test system: Mus musculus; test: Radioprotective activity in C57BL/6J mouse assessed as increase in platelet count at 100 mg/kg, sc preincubated with compound for 24 hrs followed by total body irradiation with 6.5 Gy and measured on day 10; assay type: functional, organism-based; settings: time 11.0 day
[12] = Half life in ICR mouse at 100 mg/kg, iv measured upto 24 hrs by LC-MS/MS analysis; assay type: ADME, organism-based; settings: in vivo
[13] = test system: Mus musculus; test: Radioprotective activity in C57BL/6J mouse assessed as increase in number of LSK cells at 100 mg/kg, sc preincubated with compound for 24 hrs followed by total body irradiation with 6.5 Gy and measured after 30 days; assay type: functional, organism-based; settings: time 31.0 day
[14] = test system: Mus musculus; test: Radioprotective activity in C57BL/6J mouse assessed as increase in RBC count at 100 mg/kg, sc preincubated with compound for 24 hrs followed by total body irradiation with 6.5 Gy and measured after 30 days; assay type: functional, organism-based; settings: time 31.0 day
[15] = test system: Mus musculus; test: Radioprotective activity in C57BL/6J mouse assessed as increase in spleen coefficient at 100 mg/kg, sc preincubated with compound for 24 hrs followed by total body irradiation with 6.5 Gy and measured after 10 days; assay type: functional, organism-based; settings: time 11.0 day
[16] = Bioavailability in ICR mouse at 100 mg/kg, sc measured upto 24 hrs by LC-MS/MS analysis; assay type: ADME, organism-based; settings: in vivo
[17] = test system: Mus musculus; test: Radioprotective activity in C57BL/6J mouse assessed as splenomegaly at 100 mg/kg, sc preincubated with compound for 24 hrs followed by total body irradiation with 6.5 Gy and measured after 10 days; assay type: functional, organism-based; settings: time 11.0 day
[18] = test system: Mus musculus; test: Radioprotective activity in C57BL/6J mouse assessed as increase in WBC count at 100 mg/kg, sc preincubated with compound for 24 hrs followed by total body irradiation with 6.5 Gy and measured after 30 days; assay type: functional, organism-based; settings: time 31.0 day
[19] = Volume of distribution at steady state in ICR mouse at 100 mg/kg, iv measured upto 24 hrs by LC-MS/MS analysis; assay type: ADME, organism-based; settings: ICR, in vivo, read-out: Vdss
[20] = test system: Mus musculus; test: Radioprotective activity in C57BL/6J mouse assessed as increase in neutrophils at 100 mg/kg, sc preincubated with compound for 24 hrs followed by total body irradiation with 6.5 Gy and measured after 30 days; assay type: functional, organism-based; settings: time 31.0 day
[21] = test system: Mus musculus; test: Radioprotective activity in C57BL/6J mouse assessed as increase in RBC count at 100 mg/kg, sc preincubated with compound for 24 hrs followed by total body irradiation with 6.5 Gy and measured on day 14; assay type: functional, organism-based; settings: time 15.0 day
[22] = test system: Mus musculus; test: Induction of G-CSF production in C57BL/6J mouse model at 100 mg/kg, sc measured for 24 hrs by ELISA analysis; assay type: functional, organism-based
[23] = test system: Mus musculus; test: Radioprotective activity in C57BL/6J mouse assessed as increase in long term hematopoietic stem cell frequency in LSK compartment at 100 mg/kg, sc preincubated with compound for 24 hrs followed by total body irradiation with 6.5 Gy and measured after 30 days; assay type: functional, organism-based; settings: time 31.0 day
[24] = Tmax in ICR mouse at 100 mg/kg, sc measured upto 24 hrs by LC-MS/MS analysis; assay type: ADME, organism-based; settings: in vivo
[25] = Cmax in ICR mouse at 100 mg/kg, sc measured upto 24 hrs by LC-MS/MS analysis; assay type: ADME, organism-based; settings: in vivo
[26] = test system: Mus musculus; test: Radioprotective activity in C57BL/6J mouse assessed as increase in multipotent progenitor frequency in LSK compartment at 100 mg/kg, sc preincubated with compound for 24 hrs followed by total body irradiation with 6.5 Gy and measured after 30 days; assay type: functional, organism-based; settings: time 31.0 day
[27] = test system: Mus musculus; test: Radioprotective activity in C57BL/6J mouse assessed as increase in neutrophils at 100 mg/kg, sc preincubated with compound for 24 hrs followed by total body irradiation with 6.5 Gy and measured on day 7; assay type: functional, organism-based; settings: time 8.0 day
[28] = test system: Mus musculus; test: Radioprotective activity in C57BL/6J mouse assessed as increase in number of total bone marrow cells at 100 mg/kg, sc preincubated with compound for 24 hrs followed by total body irradiation with 6.5 Gy and measured after 30 days; assay type: functional, organism-based; settings: time 31.0 day
[29] = Stability in C57BL/6J mouse whole blood assessed as half-life; assay type: ADME, tissue-based
[30] = test system: Mus musculus; test: Induction of G-CSF production in C57BL/6J mouse model at 100 mg/kg, ip measured for 24 hrs by ELISA analysis; assay type: functional, organism-based
[31] = test system: Mus musculus; test: Radioprotective activity in C57BL/6J mouse assessed as increase in MPP number at 100 mg/kg, sc preincubated with compound for 24 hrs followed by total body irradiation with 6.5 Gy and measured after 30 days; assay type: functional, organism-based; settings: time 31.0 day
[32] = test system: Mus musculus; test: Radioprotective activity in C57BL/6J mouse assessed as increase in percentage of LK cells at 100 mg/kg, sc preincubated with compound for 24 hrs followed by total body irradiation with 6.5 Gy and measured after 30 days; assay type: functional, organism-based; settings: time 31.0 day
[33] = test system: Mus musculus; test: Radioprotective activity in C57BL/6J mouse assessed as effect on LT-HSC number at 100 mg/kg, sc preincubated with compound for 24 hrs followed by total body irradiation with 6.5 Gy and measured after 30 days; assay type: functional, organism-based; settings: time 31.0 day
[34] = test system: Mus musculus; test: Induction of G-CSF production in C57BL/6J mouse model at 50 mg/kg, sc measured for 24 hrs by ELISA analysis; assay type: functional, organism-based
[35] = test system: Mus musculus; test: Radioprotective activity in C57BL/6J mouse assessed as survival rate at 100 mg/kg, sc preincubated with compound for 24 hrs followed by total body irradiation with 9.5 Gy and measured after 30 days by Kaplan-meier plot analysis; assay type: functional; settings: light or radiation study, 744 h, time 31 day
[36] = test system: Mus musculus; test: Radioprotective activity in C57BL/6J mouse assessed as effect on splenic LT-HSCs number at 100 mg/kg, sc preincubated with compound for 24 hrs followed by total body irradiation with 6.5 Gy and measured after 10 days; assay type: functional, organism-based; settings: time 11.0 day
[37] = test system: Mus musculus; test: Radioprotective activity in C57BL/6J mouse assessed as increase in ST-HSC number at 100 mg/kg, sc preincubated with compound for 24 hrs followed by total body irradiation with 6.5 Gy and measured after 30 days; assay type: functional, organism-based; settings: time 31.0 day
[38] = test system: Mus musculus; test: Radioprotective activity in C57BL/6J mouse assessed as increase in percentage of LSK cells at 100 mg/kg, sc preincubated with compound for 24 hrs followed by total body irradiation with 6.5 Gy and measured after 30 days; assay type: functional, organism-based; settings: time 31.0 day
[39] = test system: Mus musculus; test: Induction of G-CSF production in C57BL/6J mouse model at 100 to 200 mg/kg, sc measured for 24 hrs by ELISA analysis; assay type: functional, organism-based; settings: dose 100-200 mg/kg
[40] = test system: Mus musculus; test: Induction of G-CSF production in sc dosed C57BL/6J mouse model measured for 24 hrs by ELISA analysis; assay type: functional, organism-based; settings: dose 12.5-200 mg/kg
[41] = test system: Mus musculus; test: Radioprotective activity in C57BL/6J mouse assessed as fold increase in total number of splenic nucleated cells at 100 mg/kg, sc preincubated with compound for 24 hrs followed by total body irradiation with 6.5 Gy and measured after 10 days; assay type: functional; settings: time 11 day
[42] = test system: Mus musculus; test: Induction of G-CSF production in C57BL/6J mouse model at 12.5 to 25 mg/kg, sc measured for 24 hrs by ELISA analysis; assay type: functional, organism-based; settings: dose 12.5-25 mg/kg

Structure (SMILES)	CL [1] [mL/min/kg]	MRT last at 24 h [2] [h]	MRT last at 24 h [3] [h]	Tmax [4] [h]	MRT inf [5] [h]	Activity [6]	Cmax [8] [ng/mL]	survival at 100 mg/kg [9] [%]	Activity [11]	half-life [12] [h]	Activity [14]	Activity [15]	F [16] [%]	Activity [17]	Activity [18]	Vd [19] [L/kg]	Activity [20]	Activity [21]	Activity [22]	Activity [23]	other results
CC(C)=CCC/C(C)=C/CC/C(C)=C/CC[C@]1(C)CCc2cc(OCCO)cc(C)c2O1	6.3815	12	0.67	17.3	0.92	Active	8.15	70	Active	7.56	Active	Active	8.3	Active	Active	0.351	Active	Active	Active	Active	Activity [7]: Active; Activity [10]: 100%; Activity [13]: Active; Tmax [24]: 0.67 h; Cmax [25]: 1.14 ng/mL; Activity [26]: Active; Activity [27]: Active; Activity [28]: Active
CC(C)=CCC/C(C)=C/CC/C(C)=C/CC[C@]1(C)CCc2cc(OC(=O)CCCCCC(=O)O)cc(C)c2O1	–	–	–	–	–	–	–	70	–	–	–	–	–	–	–	–	–	–	Active	–	survival at 100 mg/kg ([10]; Mus musculus, C57BL/6J, light or radiation study, 744 h): 90%; half-life [29]: 8.6 min
Cc1c(C)c2c(c(C)c1O)CC[C@@](C)(CCCC(C)CCCC(C)CCCC(C)C)O2 (stereo not given in full)	–	–	–	–	–	–	–	–	–	–	–	–	–	–	–	–	–	–	–	–	Activity [30]: inactive
Cc1cc(O)c(C)c2c1O[C@](C)(CCCC(C)CCCC(C)CCCC(C)C)CC2 (stereo not given in full)	–	–	–	–	–	–	–	–	–	–	–	–	–	–	–	–	–	–	–	–	Activity [30]: inactive
CC(C)=CCC/C(C)=C/CC/C(C)=C/CC[C@]1(C)CCc2cc(O)cc(C)c2O1 [DELTA-TOCOTRIENOL]	4.4143	13.9	1.46	0.08	1.63	Active	1.11	70	Active	4.43	Active	Active	2.02	Active	Active	0.437	Active	Active	Active	Active	Activity [31]: Active; Activity [32]: Active; Activity [33]: inactive; Activity [34]: Active; survival at 100 mg/kg [35]: 60%; Activity [36]: Active; Activity [37]: Active; Activity [38]: Active; Activity [39]: Active; Activity [40]: Dose-dependent-effect; fold change (FC) [41]: ~2.5; Tmax [24]: 12 h; Cmax [25]: 4.95 ng/mL; Activity [42]: inactive; Activity [26]: Active; Activity [27]: Active
